Here are results for four molecules from patent US4229375A (priority 1977, dated 1980).

Structures can show the parent of a compound that is named as a salt.

The test system of one series is Newcastle disease virus. The experiment in a line: microbe, parasite or virus in culture. The class given is cell-based. The note with it: for MIC: avian paramyxovirus 1, in Gallus gallus, 48 h, read-out: Minimum growth-inhibition concentration.
A further series is described as follows: in vitro. The note with it: chicken, chick embryo fibroblast.

For the molecule `NC12CC3CC(CC(C3)C1)C2` [Adamantylamine hydrochloride, reference compound], in the series with Newcastle disease virus, the MIC was determined as 250 µg/mL. This molecule registered an MCC at 48 h in “in vitro” of 250 µg/mL.
Take `Cl.NC12CCCC(C1)C1CCC2C1` (stereo not shown) [1-Aminotricyclo-[4.3.1.1^2,5]undecane hydrochloride, reference compound]: the MIC in the series with Newcastle disease virus came to 87 µg/mL. For the same molecule, the MCC at 48 h in the series “in vitro” turned out to be 87 µg/mL.
On to `Cl.NCC12CCCC(C1)C1CCC2C1` (stereo not shown) [1-aminomethyltricyclo[4.3.1.1^2,5]undecane hydrochloride], for which the MIC in the series with Newcastle disease virus was 40 µg/mL. In “in vitro”, this molecule yielded an MCC at 48 h of 40 µg/mL.
For `NCC12CCCC(C1)C1CCC2C1` (stereo not shown) [compound of the formula (I), 1-aminomethyltricyclo[4.3.1.1^2,5]undecane], the “inhibitory effect on the growth of viruses (in words)” value in the series with Newcastle disease virus (compared with 1-aminotricyclo[4.3.1.1^2,5 ]undecane) was “inhibitory effect on the growth of viruses at a lower concentration than the earlier compound”. In addition, in the series with Newcastle disease virus (in chick embryo fibroblasts), the “inhibitory effect on the growth of Newcastle disease virus (in words)” value is “excellent inhibitory effect”. For the same molecule, the “fraction of the concentration of 1-aminotricyclo[4.3.1.1^2,5 ]undecane at which virus multiplication is inhibited” value with Newcastle disease virus (relative to 1-aminotricyclo[4.3.1.1^2,5 ]undecane, Newcastle disease virus in chick embryo fibroblasts) is listed as 1/2. In addition, in the series on Newcastle disease virus (relative to adamantylamine hydrochloride, Newcastle disease virus in chick embryo fibroblasts), the “fraction of the concentration of adamantylamine hydrochloride at which virus multiplication is inhibited” value is “about 1/6”.
